According to US7271239B2, “D-isomers of antimicrobial peptide” (The Research Foundation of State University of New York, priority 2004, dated 2007):
Where no end group is shown, it is not given here.

Tests used:
[1] = system: C. albicans strain DIS; assay type: in vivo, mice ICR strain; settings: mouse, in vivo
Protocol: A previously described protocol was adopted (14). Mice were immunosuppressed with two subcutaneous injections of prednisolone at a dose of 100 mg/kg body weight 1 day prior to and 3 days after the infection with C. albicans. Tetracycline hydrochloride in drinking water at a concentration of 0.83 mg/ml was given to mice beginning 1 day before infection. Mice were anesthetized by intramuscular injection with 60 μl of 2 mg/ml chlorpromazine chloride, using a dose of 10 mg/kg body weight of mice. While under anesthesia, a small cotton ball soaked in 0.1 ml aliquot of C. albicans cell suspension (2.5×10^6 cells) was used to swab the entire oral cavity of the anesthetized mice.
Visual evaluation was done by carefully extending the tongue of randomly picked mice using blunt-end forceps, while the mice were under isoflurane sedation. Presence of thick, white curd-like patches indicated candidal infection. At day 3 post-infection, all animals were examined for evidence oral candidal infection by microbiological evaluation. The entire oral cavity of anesthetized mice was swabbed using a sterile calcium alginate disposable swab (Fisher Scientific), dampened with sterile PBS. Cells were then released from the swab into 1 ml PBS. Serial 10-fold dilutions were plated on SDA plates supplemented with streptomycin (30 μg/ml). Plates were incubated for 24 h at 37° C. and yeast cell count expressed as log10 of cfu/ml.
Tongues from sacrificed animals were used for histological studies. They were fixed in 10% formalin and embedded in paraffin. Serial five-μm sections were cut from the paraffin block and stained with periodic acid-Schiff (PAS) reagent for detection of C. albicans.
Mice were randomly divided into various treatment groups with 8 mice per group. Antifungal agents were employed on an equimolar basis, and included amphotericin B (1.75%), clotrimazole (0.66%), MUC7 12-mer (RKSYKCLHKRCR—SEQ ID NO:1) (L; 3%), MUC7 12-mer (D; 3%), MUC7 12-mer (D; 3%) containing Na2EDTA (1 mM), MUC7 12-mer (L; 3%) containing protease inhibitor cocktail (PIC) (1%), and Hsn5 12-mer (AKRHHGYKRKFH—SEQ ID NO:2) (3%). They were all emulsified in Pluronic F127, (20% lipoil), a polymer of polyoxyethylene and polyoxypropylene (non-ionic surfactant). Animals were anesthetized using isoflurane; while sedated, about 30 to 40 μl of the antifungal emulsion was applied on the tongue and spread throughout oral cavity. The treated mice were under sedation for additional 5 min under isoflurane. Animals were not given access to food and water for 1 h following the application.
Fungal burden was re-evaluated quantitatively after 3 and 6 days of treatment, using the same technique as the one used for initial evaluation. Randomly picked mice from each group was subjected to histopathological evaluation, after 6 days of treatment. Blood from randomly sacrificed mice from each treatment group was analyzed for any changes in the serum liver (AST, ALT, ALP etc.) and kidney enzymes (BUN, glucose, creatinine etc) levels.
Statistical analysis was performed using a significance level set at 0.05 (α) and a significant group size (n=8). Initial infection and antifungal treatment efficacy were determined using analysis of variance (ANOVA), expressed as log10 cfu, and Scheffe's multiple comparison test was used to determine the differences between various treatment groups.

[2] = system: HOK-16B cells; assay: MTS cell viability assay; assay type: cell-based, human; settings: 200 μM
Protocol: FIG. 6. Effect of peptides on viability of (A) HOK-16B cells and (B) KB cells. The toxic effect of the compounds on the cells was determined by calorimetric assay using a CellTiter 96 AQueous One Solution cell proliferation assay (MTS) kit, as described in the text. Briefly, the cells were grown to about 80% confluence, harvested, washed, resuspended in KGM, and dispensed into a 96-well microtiter plate. They were then exposed to different concentrations of peptides or amphotericin B at 37° C. and 5% CO2 for 1.5 h. MTS agent was then added to each well, and the cells were further incubated for 4 h. Absorbance at 490 nm was then measured using a microplate reader. MTS reduction is an indication of cell viability. The viability is expressed as relative absorbance (percentage of no-agent control). Data represent the average and standard deviation of results from two independent experiments.
Cell culture. The HOK-16B cell line (originated from primary normal human keratinocytes) was kindly provided by No-Hee Park, UCLA School of Dentistry. The KB cell line was obtained from the American Type Culture Collection (CLL-17). […]
MTS cell viability assay. The toxic effect of the compounds on the cells was determined by calorimetric assay using a CellTiter 96 AQueous One Solution cell proliferation assay (MTS) kit (Promega, Wis.). […] Absorbance at 490 nm was then measured using a microplate reader. […]

Sequence: AKRHHGYKRKFH [Hsn5 12-mer]
- additional tissue change in tongue section [1]: acanthosis of the stratum spinosum

Sequence: GIGKFLHSAKKFGKAFVGEIMNS [Magainin-II]
- loss of HOK-16B cell viability [2]: about 30%
